Counter-ions that a name gives are not always drawn.
target: T1, recombinant guanylate cyclase reporter cell line (Rattus norvegicus, UniProt P19686+P20595); test: Effect on a recombinant guanylate cyclase reporter cell line (B-2); type: cell-based; details: in some cases mean values for individual determinations
T1 construct: expressed in transfected cells
T1 sequence (P19686 1-690): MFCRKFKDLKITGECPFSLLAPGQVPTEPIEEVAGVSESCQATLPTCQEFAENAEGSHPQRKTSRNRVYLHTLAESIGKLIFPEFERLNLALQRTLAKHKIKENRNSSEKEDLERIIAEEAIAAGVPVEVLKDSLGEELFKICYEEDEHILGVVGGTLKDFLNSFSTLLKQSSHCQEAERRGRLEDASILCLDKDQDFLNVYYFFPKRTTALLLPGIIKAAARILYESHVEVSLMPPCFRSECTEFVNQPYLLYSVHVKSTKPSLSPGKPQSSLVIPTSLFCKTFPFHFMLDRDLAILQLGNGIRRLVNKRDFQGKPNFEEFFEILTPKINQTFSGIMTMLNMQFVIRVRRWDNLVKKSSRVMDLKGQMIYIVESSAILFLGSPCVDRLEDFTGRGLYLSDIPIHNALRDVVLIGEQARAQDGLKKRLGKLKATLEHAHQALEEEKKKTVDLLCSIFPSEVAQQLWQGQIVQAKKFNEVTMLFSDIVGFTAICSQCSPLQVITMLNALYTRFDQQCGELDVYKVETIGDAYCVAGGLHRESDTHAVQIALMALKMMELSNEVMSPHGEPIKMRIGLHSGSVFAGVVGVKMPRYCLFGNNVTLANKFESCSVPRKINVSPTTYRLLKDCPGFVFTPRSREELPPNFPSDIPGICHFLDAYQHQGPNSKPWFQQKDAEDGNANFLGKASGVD
T1 sequence (P20595 1-619): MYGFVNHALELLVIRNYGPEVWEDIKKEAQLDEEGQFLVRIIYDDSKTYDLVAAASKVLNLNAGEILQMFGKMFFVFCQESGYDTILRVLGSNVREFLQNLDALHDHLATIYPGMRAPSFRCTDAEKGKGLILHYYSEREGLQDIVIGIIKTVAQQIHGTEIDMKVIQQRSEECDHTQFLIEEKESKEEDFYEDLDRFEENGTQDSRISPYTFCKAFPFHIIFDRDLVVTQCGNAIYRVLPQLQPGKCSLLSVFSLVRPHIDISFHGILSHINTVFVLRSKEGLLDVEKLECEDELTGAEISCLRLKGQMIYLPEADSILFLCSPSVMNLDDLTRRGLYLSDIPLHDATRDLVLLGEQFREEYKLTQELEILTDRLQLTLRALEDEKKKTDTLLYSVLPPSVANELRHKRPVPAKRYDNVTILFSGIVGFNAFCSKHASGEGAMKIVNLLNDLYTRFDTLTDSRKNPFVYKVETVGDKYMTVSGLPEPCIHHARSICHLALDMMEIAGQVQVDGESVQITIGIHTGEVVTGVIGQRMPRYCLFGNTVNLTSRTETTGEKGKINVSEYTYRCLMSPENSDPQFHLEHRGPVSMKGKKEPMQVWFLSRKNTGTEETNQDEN
Method: B-2. Effect on a Recombinant Guanylate Cyclase Reporter Cell Line
The cellular effect of the inventive compounds is determined using a recombinant guanylate cyclase reporter cell line, as described in F. Wunder et al., Anal. Biochem. 339, 104-112 (2005).
Representative MEC values (MEC=minimum effective concentration) for the inventive compounds are shown in the table below (in some cases as mean values for individual determinations): […]

Row | Structure (SMILES) | MEC (minimum effective concentration)
1 | Cc1cc(OCc2c(F)cccc2F)n2nc(C)c(C(=O)NCC(C)(N)CCCF)c2c1 (single isomer, unassigned) [Example 45, ent-N-(2-Amino-5-fluoro-2-methylpentyl)-7-[(2,6-difluorobenzyl)oxy]-2,5-dimethylpyrazolo[1,5-a]pyridine-3-carboxamide] | 0.3 µM
2 | Cc1cc(OCc2c(F)ccc(F)c2F)n2nc(C)c(C(=O)NCc3ncc[nH]3)c2c1 [Example 18, N-(1H-Imidazol-2-ylmethyl)-2,5-dimethyl-7-[(2,3,6-trifluorobenzyl)oxy]pyrazolo[1,5-a]pyridine-3-carboxamide] | 3.0 µM
3 | Cc1cc(OCc2c(F)cccc2F)n2nc(C)c(C(=O)NCC3CCC(=O)N3)c2c1 (racemic) [Example 95, rac-7-[(2,6-Difluorobenzyl)oxy]-2,5-dimethyl-N-[(5-oxopyrrolidin-2-yl)methyl]pyrazolo[1,5-a]pyridine-3-carboxamide] | 10 µM
4 | Cc1cc(OCc2c(F)cccc2F)n2nc(C)c(C(=O)NC3CC(=O)Nc4ccccc43)c2c1 (racemic) [Example 76, rac-7-[(2,6-Difluorobenzyl)oxy]-2,5-dimethyl-N-(2-oxo-1,2,3,4-tetrahydroquinolin-4-yl)pyrazolo[1,5-a]pyridine-3-carboxamide trifluoroacetate] | 0.3 µM
5 | Cc1cc(OCc2c(F)ccc(F)c2F)n2nc(C)c(C(=O)NC3c4ccccc4CC3O)c2c1 (stereo not drawn) [Example 6] | 1.0 µM
6 | Cc1cc(OCc2c(F)cccc2F)n2nc(C)c(C(=O)NC3CCNC(C(F)(F)F)C3)c2c1 (stereo not drawn) [Example 154, 7-[(2,6-Difluorobenzyl)oxy]-2,5-dimethyl-N-[2-(trifluoromethyl)piperidin-4-yl]pyrazolo[1,5-a]pyridine-3-carboxamide] | 1.0 µM
7 | CCCC(C)(N)CNC(=O)c1c(C)nn2c(OCc3cccc(F)c3F)cc(C)cc12 (racemic) [Example 158, rac-N-(2-Amino-2-methylpentyl)-7-[(2,3-difluorobenzyl)oxy]-2,5-dimethylpyrazolo[1,5-a]pyridine-3-carboxamide] | 1.0 µM
8 | Cc1cc(OCc2c(F)cccc2F)n2nc(C)c(C(=O)NCC(=O)NC3CC3)c2c1 [Example 89, N-[2-(Cyclopropylamino)-2-oxoethyl]-7-[(2,6-difluorobenzyl)oxy]-2,5-dimethylpyrazolo[1,5-a]pyridine-3-carboxamide] | 3.0 µM
9 | COc1ccc2c(c1)C(NC(=O)c1c(C)nn3c(OCc4c(F)cccc4F)cc(C)cc13)CCC2 (racemic) [Example 146, rac-7-[(2,6-Difluorobenzyl)oxy]-N-(7-methoxy-1,2,3,4-tetrahydronaphthalen-1-yl)-2,5-dimethylpyrazolo[1,5-a]pyridine-3-carboxamide] | 1.0 µM
10 | COc1cccc(C(CN)NC(=O)c2c(C)nn3c(OCc4c(F)cccc4F)cc(C)cc23)c1 (racemic) [Example 123, rac-N-[2-Amino-1-(3-methoxyphenyl)ethyl]-7-[(2,6-difluorobenzyl)oxy]-2,5-dimethylpyrazolo[1,5-a]pyridine-3-carboxamide] | 1.0 µM
11 | Cc1cc(OCc2c(F)ccc(F)c2F)n2nc(C)c(C(=O)Nc3c(C(F)(F)F)n[nH]c3C)c2c1 [Example 20, 2,5-Dimethyl-N-[5-methyl-3-(trifluoromethyl)-1H-pyrazol-4-yl]-7-[(2,3,6-trifluorobenzyl)oxy]pyrazolo[1,5-a]pyridine-3-carboxamide] | 0.3 µM
12 | COC(=O)[C@H]1CC[C@H](CNC(=O)c2c(C)nn3c(OCc4c(F)cccc4F)cc(C)cc23)CC1 [Example 35, Methyl trans-4-{[({7-[(2,6-difluorobenzyl)oxy]-2,5-dimethylpyrazolo[1,5-a]pyridin-3-yl}carbonyl)amino]methyl}cyclohexanecarboxylate] | 1.0 µM
13 | Cc1cc(OCc2c(F)cccc2F)n2nc(C)c(C(=O)NCC3CSCCN3)c2c1 (racemic) [Example 88, rac-7-[(2,6-Difluorobenzyl)oxy]-2,5-dimethyl-N-(thiomorpholin-3-ylmethyl)pyrazolo[1,5-a]pyridine-3-carboxamide] | 1.0 µM
14 | Cc1cc(OCc2c(F)cccc2F)n2nc(C)c(C(=O)NCC3CNCCO3)c2c1 (racemic) [Example 142, rac-7-[(2,6-Difluorobenzyl)oxy]-2,5-dimethyl-N-(morpholin-2-ylmethyl)pyrazolo[1,5-a]pyridine-3-carboxamide] | 10 µM
15 | CCCC(C)(N)CNC(=O)c1c(C)nn2c(OCc3c(F)ccc(OC)c3F)cc(C)cc12 (racemic) [Example 161, rac-N-(2-Amino-2-methylpentyl)-7-[(2,6-difluoro-3-methoxybenzyl)oxy]-2,5-dimethylpyrazolo[1,5-a]pyridine-3-carboxamide] | 3.0 µM
16 | Cc1cc(OCc2c(F)ccc(F)c2F)n2nc(C)c(C(=O)NC3CC(C)(C)NC(C)(C)C3)c2c1 [Example 9, 2,5-Dimethyl-N-(2,2,6,6-tetramethylpiperidin-4-yl)-7-[(2,3,6-trifluorobenzyl)oxy]pyrazolo[1,5-a]pyridine-3-carboxamide] | 1.0 µM
17 | Cc1cc(OCc2c(F)cccc2F)n2nc(C3CC3)c(C(=O)NCC(C)(N)CC(F)F)c2c1 (single isomer, unassigned) [Example 56, ent-N-(2-Amino-4,4-difluoro-2-methylbutyl)-2-cyclopropyl-7-[(2,6-difluorobenzyl)oxy]-5-methylpyrazolo[1,5-a]pyridine-3-carboxamide] | 0.3 µM

Next, values leading:

Row | MEC (minimum effective concentration) | Structure (SMILES)
18 | 3.0 µM | Cc1cc(OCc2c(F)cccc2F)n2nc(C)c(C(=O)N[C@@H]3CCNC3=O)c2c1 [Example 98, 7-[(2,6-Difluorobenzyl)oxy]-2,5-dimethyl-N-[(3R)-2-oxopyrrolidin-3-yl]pyrazolo[1,5-a]pyridine-3-carboxamide]
19 | 0.3 µM | Cc1cc(OCc2c(F)ccc(F)c2F)n2nc(C)c(C(=O)Nc3cnn(CC(F)(F)F)c3)c2c1 [Example 17, 2,5-Dimethyl-7-[(2,3,6-trifluorobenzyl)oxy]-N-[1-(2,2,2-trifluoroethyl)-1H-pyrazol-4-yl]pyrazolo[1,5-a]pyridine-3-carboxamide]
20 | 0.2 µM | CCCC(C)(N)CNC(=O)c1c(C)nn2c(OCc3c(F)ccc(F)c3F)cc(C)cc12 (single isomer, unassigned) [Example 4, ent-N-(2-Amino-2-methylpentyl)-2,5-dimethyl-7-[(2,3,6-trifluorobenzyl)oxy]pyrazolo[1,5-a]pyridine-3-carboxamide]
21 | 0.3 µM | Cc1cc(OCc2c(F)cccc2F)n2nc(C)c(C(=O)NCC(C)(N)CCF)c2c1 (racemic) [Example 48, rac-N-(2-Amino-4-fluoro-2-methylbutyl)-7-[(2,6-difluorobenzyl)oxy]-2,5-dimethylpyrazolo[1,5-a]pyridine-3-carboxamide]
22 | 0.3 µM | Cc1cc(OCc2c(F)cccc2F)n2nc(C)c(C(=O)NCC(C)(N)CCF)c2c1 (single isomer, unassigned) [Example 50, ent-N-(2-Amino-4-fluoro-2-methylbutyl)-7-[(2,6-difluorobenzyl)oxy]-2,5-dimethylpyrazolo[1,5-a]pyridine-3-carboxamide]
23 | 1.0 µM | CCCC(C)(N)CNC(=O)c1c(C)nn2c(OCc3c(F)cccc3F)cc(OC)cc12 (racemic) [Example 171, rac-N-(2-Amino-2-methylpentyl)-7-[(2,6-difluorobenzyl)oxy]-5-methoxy-2-methylpyrazolo[1,5-a]pyridine-3-carboxamide]
24 | 0.3 µM | Cc1cc(OCc2c(F)ccc(F)c2F)n2nc(C)c(C(=O)Nc3cnn4ccccc34)c2c1 [Example 23, 2,5-Dimethyl-N-(pyrazolo[1,5-a]pyridin-3-yl)-7-[(2,3,6-trifluorobenzyl)oxy]pyrazolo[1,5-a]pyridine-3-carboxamide]
